Measurements taken from patent publication US10730863B2, “Bridged bicyclic compounds as farnesoid X receptor modulators” (BRISTOL-MYERS SQUIBB COMPANY, priority 2017, dated 2020).

These molecules were tested against FXR (Homo sapiens (Human), UniProt Q96RI1) (assay: FXR EC50 (FXR agonist activity reported with each example)).
Assay type: cell-based

Sequence of FXR (Q96RI1 262-486): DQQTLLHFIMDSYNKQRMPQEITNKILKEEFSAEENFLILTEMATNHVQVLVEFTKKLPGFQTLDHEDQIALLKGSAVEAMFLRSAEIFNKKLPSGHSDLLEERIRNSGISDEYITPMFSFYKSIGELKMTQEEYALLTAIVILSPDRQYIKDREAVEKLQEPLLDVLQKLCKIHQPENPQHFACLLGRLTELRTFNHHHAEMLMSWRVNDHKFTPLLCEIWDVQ

Compound | EC50
NC(=O)c1cc(C(F)(F)F)cc(C23CCC(COCc4c(-c5c(Cl)cncc5Cl)noc4C4CC4)(CC2)CO3)c1 [Example 489, 3-(4-(((5-cyclopropyl-3-(3,5-dichloropyridin-4-yl)isoxazol-4-yl)methoxy)methyl)-2-oxabicyclo[2.2.2]octan-1-yl)-5-(trifluoromethyl)benzamide] | 1400 nM
O=C(O)c1cc(C(F)(F)F)cc(C23CCC(COCc4c(-c5c(Cl)cncc5Cl)noc4C4CC4)(CC2)CO3)c1 [Example 490, 3-(4-(((5-cyclopropyl-3-(3,5-dichloropyridin-4-yl)isoxazol-4-yl)methoxy)methyl)-2-oxabicyclo[2.2.2]octan-1-yl)-5-(trifluoromethyl)benzoic acid] | 96 nM
O=C(O)c1cc(C(F)(F)F)cc(C23CCC(/C=C/c4c(-c5c(Cl)cncc5Cl)noc4C4CC4)(CC2)CO3)c1 [Example 491, (E)-3-(4-(2-(5-cyclopropyl-3-(3,5-dichloropyridin-4-yl)isoxazol-4-yl)vinyl)-2-oxabicyclo[2.2.2]octan-1-yl)-5-(trifluoromethyl)benzoic acid] | 26 nM
COc1ccc(-c2noc(C34CCC(/C=C/c5c(-c6c(Cl)cncc6Cl)noc5C5CC5)(CC3)CO4)n2)cc1C(=O)O [Example 492, (E)-5-(5-(4-(2-(5-cyclopropyl-3-(3,5-dichloropyridin-4-yl)isoxazol-4-yl)vinyl)-2-oxabicyclo[2.2.2]octan-1-yl)-1,2,4-oxadiazol-3-yl)-2-methoxybenzoic acid] | 250 nM
COc1cc(OCC23CCC(/C=C/c4c(-c5c(Cl)cncc5Cl)noc4C4CC4)(CC2)CC3)cc(C(=O)O)c1 [Example 493, (E)-3-((4-(2-(5-cyclopropyl-3-(3,5-dichloropyridin-4-yl)isoxazol-4-yl)vinyl)bicyclo[2.2.2]octan-1-yl)methoxy)-5-methoxybenzoic acid] | 18 nM
O=C(O)c1cc(-c2noc(C34CCC(/C=C/c5c(-c6c(Cl)cncc6Cl)noc5C5CC5)(CC3)OC4)n2)cc(C(F)(F)F)c1 [Example 494, (E)-3-(5-(1-(2-(5-cyclopropyl-3-(3,5-dichloropyridin-4-yl)isoxazol-4-yl)vinyl)-2-oxabicyclo[2.2.2]octan-4-yl)-1,2,4-oxadiazol-3-yl)-5-(trifluoromethyl)benzoic acid] | 130 nM
O=C(O)c1cccc(-c2noc(C34CCC(/C=C/c5c(-c6c(Cl)cncc6Cl)noc5C5CC5)(CC3)OC4)n2)c1 [Example 495, (E)-3-(5-(1-(2-(5-cyclopropyl-3-(3,5-dichloropyridin-4-yl)isoxazol-4-yl)vinyl)-2-oxabicyclo[2.2.2]octan-4-yl)-1,2,4-oxadiazol-3-yl)benzoic acid] | 1700 nM
COc1ccc(-c2noc(C34CCC(/C=C/c5c(-c6c(Cl)cncc6Cl)noc5C5CC5)(CC3)OC4)n2)cc1C(=O)O [Example 496, (E)-5-(5-(1-(2-(5-cyclopropyl-3-(3,5-dichloropyridin-4-yl)isoxazol-4-yl)vinyl)-2-oxabicyclo[2.2.2]octan-4-yl)-1,2,4-oxadiazol-3-yl)-2-methoxybenzoic acid] | 1000 nM
O=C(O)c1cc(OC(F)F)cc(-c2noc(C34CCC(/C=C/c5c(-c6c(Cl)cncc6Cl)noc5C5CC5)(CC3)OC4)n2)c1 [Example 497, (E)-3-(5-(1-(2-(5-cyclopropyl-3-(3,5-dichloropyridin-4-yl)isoxazol-4-yl)vinyl)-2-oxabicyclo[2.2.2]octan-4-yl)-1,2,4-oxadiazol-3-yl)-5-(difluoromethoxy)benzoic acid] | 460 nM
O=C(O)c1cc(OC(F)F)c2cc(OCC34CCC(/C=C/c5c(-c6c(Cl)cncc6Cl)noc5C5CC5)(CC3)CO4)ccc2n1 [Example 498, (E)-6-((4-(2-(5-cyclopropyl-3-(3,5-dichloropyridin-4-yl)isoxazol-4-yl)vinyl)-2-oxabicyclo[2.2.2]octan-1-yl)methoxy)-4-(difluoromethoxy)quinoline-2-carboxylic acid] | 250 nM
